Assay results: publication PMC7849180 (Frontiers in Pharmacology, 2020)
Counter-ions that a name gives are not always drawn. Like-named read-outs stand apart in the source and are kept apart here.

Columns and labels:
myelofibrosis [1] = system: myelofibrosis; design: method as in Ruxolitinib Phase I/II trials; conditions: within 3 months, 153 MF patients, ref Ruxolitinib Phase I/II trials; cited from earlier work
myelofibrosis [2] = system: myelofibrosis; design: method as in RA Abdelrahman et. al.; conditions: ref RA Abdelrahman et. al., cited from earlier work
myelofibrosis [3] = system: myelofibrosis; design: method as in COMFORT-II; conditions: Week 48, ref COMFORT-II; cited from earlier work
myelofibrosis [4] = system: myelofibrosis; design: method as in COMFORT-I; conditions: ref COMFORT-I; cited from earlier work
polycythemia vera = conditions: cited from earlier work
CYP2C19 = molecular target: T1, CYP2C19 (Homo sapiens, UniProt P33261); assay type: in vitro ADME; conditions: microsomes
T1 construct: using mixed human liver microsomes and human primary hepatocytes as the in vitro; from tissue; host or cells: mixed (pooled) human liver microsomes

CYP2D6 = molecular target: T2, CYP2D6 (Homo sapiens, UniProt P10635); assay type: in vitro ADME; conditions: microsomes
T2 construct: using mixed human liver microsomes and human primary hepatocytes as the in vitro; from tissue; host or cells: mixed (pooled) human liver microsomes

CYP3A4 = molecular target: T3, CYP3A4 (Homo sapiens, UniProt P08684); experiment: CYP inhibition, mixed human liver microsomes; assay type: in vitro ADME
T3 construct: using mixed human liver microsomes and human primary hepatocytes as the in vitro; from tissue; host or cells: mixed (pooled) human liver microsomes

[5] = system: J53Z1 cells harboring the JAK2V617F mutation and HCD-57 cells transfected with oncogenic mutations; experiment: Growth of cell lines transfected with oncogenes; assay type: cell-based
Excerpt: (§1) Suzhou Zelgen Biopharmaceuticals Co., Ltd. Jaktinib Hydrochloride Tablets Chemical Drug Class 1 New Drug and ZG0178. However, the inhibitory effect on the activity of Ba/F3-EpoR cell line […]
(§2) respectively. Obviously, this selective inhibition is associated with the aberrant expression of JAK2 in Ba/F3-EpoR-JAK2V617F mutant cells, and the degree of ZG0163 inhibition on JAK-STAT signaling pathway in this cell line. […]
(§3) cells, and the effects of ZG0163 was similar to those of positive control compounds, […]
(§4) In Vitro Inhibitory Effect of ZG0128 on Cell Lines Transfected with Oncogenes and Primary Blood Cells in Patients with Polycythemia Vera
(§5) In vitro cell culture assay was used to determine whether compound ZG0128 […]
(§6) cell line harboring a JAK2V617F mutation, and 8 HCD-57 cell lines stably transfected with oncogenic mutations JAK2V617F, MPLW515L, KITD816V, NPM-ALK, FLT3-ITD, FLT3D835H, FLT3D835Y and KRasG12V, respectively. In addition, study the inhibitory effects of compound ZG0128 on the growth of hematopoietic progenitor cells in patients with polycythemia vera.
(§7) 9 cell lines were similar to those of positive control drug ZG0192. At the sub-micromolar concentration, both compounds ZG0128 and ZG0192 were able to […]
(§8) the growth of HCD-57 cells transfected with oncogenic mutations JAK2V617F, […]
(§9) spectrum inhibitory effect on tyrosine kinases. […]

CYP1A2 = molecular target: T4, CYP1A2 (Homo sapiens, UniProt P05177); assay type: in vitro ADME; conditions: microsomes
T4 construct: using mixed human liver microsomes and human primary hepatocytes as the in vitro; from tissue; host or cells: mixed (pooled) human liver microsomes

CYP2B6 = molecular target: T5, CYP2B6 (Homo sapiens, UniProt P20813); assay type: in vitro ADME; conditions: microsomes
T5 construct: using mixed human liver microsomes and human primary hepatocytes as the in vitro; from tissue; host or cells: mixed (pooled) human liver microsomes

CYP2C9 = molecular target: T6, CYP2C9 (Homo sapiens, UniProt P11712); assay type: in vitro ADME; conditions: microsomes
T6 construct: using mixed human liver microsomes and human primary hepatocytes as the in vitro; from tissue; host or cells: mixed (pooled) human liver microsomes

CYP2C8 = molecular target: T7, CYP2C8 (Homo sapiens, UniProt P10632); assay type: in vitro ADME; conditions: microsomes
T7 construct: using mixed human liver microsomes and human primary hepatocytes as the in vitro; from tissue; host or cells: mixed (pooled) human liver microsomes

[6] = system: primary cells harboring the JAK2V617F mutation in patients with polycythemia vera; experiment: Colony forming of erythroid hematopoietic cells of polycythemia vera patients; assay type: cell-based, human; conditions: 9 patients
Excerpt: as §1, §2, §3, §4, §5, §6, §7, §8, §9

T3 sequence (P08684 whole entry): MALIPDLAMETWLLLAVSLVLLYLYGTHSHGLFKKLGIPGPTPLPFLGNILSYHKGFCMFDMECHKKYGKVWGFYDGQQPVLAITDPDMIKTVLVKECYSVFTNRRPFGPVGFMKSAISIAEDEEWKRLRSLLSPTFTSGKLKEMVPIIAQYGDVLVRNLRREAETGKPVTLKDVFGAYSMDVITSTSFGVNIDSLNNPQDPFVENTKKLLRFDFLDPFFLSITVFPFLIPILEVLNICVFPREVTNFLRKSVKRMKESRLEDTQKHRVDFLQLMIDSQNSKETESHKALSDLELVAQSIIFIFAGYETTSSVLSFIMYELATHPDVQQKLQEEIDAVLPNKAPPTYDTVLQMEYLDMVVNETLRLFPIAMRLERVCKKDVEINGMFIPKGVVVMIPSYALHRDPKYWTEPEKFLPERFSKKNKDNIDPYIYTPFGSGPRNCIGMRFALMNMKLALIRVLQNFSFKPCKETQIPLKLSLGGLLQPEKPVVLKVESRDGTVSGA
T2 sequence (P10635 whole entry): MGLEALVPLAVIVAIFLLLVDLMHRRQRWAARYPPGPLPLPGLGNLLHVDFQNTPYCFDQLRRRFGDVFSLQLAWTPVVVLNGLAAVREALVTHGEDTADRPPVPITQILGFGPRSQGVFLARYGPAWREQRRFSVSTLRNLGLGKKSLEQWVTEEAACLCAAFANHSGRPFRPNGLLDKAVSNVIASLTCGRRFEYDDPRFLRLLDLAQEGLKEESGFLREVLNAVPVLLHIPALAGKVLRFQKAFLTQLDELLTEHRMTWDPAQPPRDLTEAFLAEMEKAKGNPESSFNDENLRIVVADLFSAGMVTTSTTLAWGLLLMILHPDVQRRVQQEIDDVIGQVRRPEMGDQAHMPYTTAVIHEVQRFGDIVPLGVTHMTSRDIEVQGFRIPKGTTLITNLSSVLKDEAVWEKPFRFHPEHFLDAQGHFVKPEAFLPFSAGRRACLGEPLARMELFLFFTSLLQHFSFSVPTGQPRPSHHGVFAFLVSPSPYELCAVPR
T4 sequence (P05177 whole entry): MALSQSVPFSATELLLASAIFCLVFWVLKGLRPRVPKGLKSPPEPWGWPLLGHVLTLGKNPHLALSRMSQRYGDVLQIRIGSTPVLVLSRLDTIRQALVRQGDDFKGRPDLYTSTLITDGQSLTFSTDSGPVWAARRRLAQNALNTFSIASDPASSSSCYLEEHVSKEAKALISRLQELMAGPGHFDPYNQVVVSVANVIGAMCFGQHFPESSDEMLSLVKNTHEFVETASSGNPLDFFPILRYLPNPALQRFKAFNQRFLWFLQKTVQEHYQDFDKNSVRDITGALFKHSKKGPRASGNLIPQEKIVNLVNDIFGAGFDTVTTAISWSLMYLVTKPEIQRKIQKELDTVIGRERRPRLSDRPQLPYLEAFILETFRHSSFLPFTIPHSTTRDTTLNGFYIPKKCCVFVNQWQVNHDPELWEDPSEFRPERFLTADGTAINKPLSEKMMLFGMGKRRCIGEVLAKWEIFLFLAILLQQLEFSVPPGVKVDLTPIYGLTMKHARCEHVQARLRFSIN
T6 sequence (P11712 whole entry): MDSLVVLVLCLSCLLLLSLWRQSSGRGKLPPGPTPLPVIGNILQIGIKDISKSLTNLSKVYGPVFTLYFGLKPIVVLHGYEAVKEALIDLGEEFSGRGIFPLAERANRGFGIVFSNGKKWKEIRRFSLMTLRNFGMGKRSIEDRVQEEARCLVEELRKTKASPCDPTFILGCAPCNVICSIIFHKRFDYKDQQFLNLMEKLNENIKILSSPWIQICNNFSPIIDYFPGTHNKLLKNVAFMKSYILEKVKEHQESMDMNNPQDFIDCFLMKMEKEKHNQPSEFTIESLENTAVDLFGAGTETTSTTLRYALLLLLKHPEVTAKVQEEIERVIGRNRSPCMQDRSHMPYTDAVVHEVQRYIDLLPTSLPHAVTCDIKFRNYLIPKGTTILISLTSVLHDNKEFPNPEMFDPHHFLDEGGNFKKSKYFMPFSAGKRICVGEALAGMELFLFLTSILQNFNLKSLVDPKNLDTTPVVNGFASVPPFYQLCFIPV
T5 sequence (P20813 whole entry): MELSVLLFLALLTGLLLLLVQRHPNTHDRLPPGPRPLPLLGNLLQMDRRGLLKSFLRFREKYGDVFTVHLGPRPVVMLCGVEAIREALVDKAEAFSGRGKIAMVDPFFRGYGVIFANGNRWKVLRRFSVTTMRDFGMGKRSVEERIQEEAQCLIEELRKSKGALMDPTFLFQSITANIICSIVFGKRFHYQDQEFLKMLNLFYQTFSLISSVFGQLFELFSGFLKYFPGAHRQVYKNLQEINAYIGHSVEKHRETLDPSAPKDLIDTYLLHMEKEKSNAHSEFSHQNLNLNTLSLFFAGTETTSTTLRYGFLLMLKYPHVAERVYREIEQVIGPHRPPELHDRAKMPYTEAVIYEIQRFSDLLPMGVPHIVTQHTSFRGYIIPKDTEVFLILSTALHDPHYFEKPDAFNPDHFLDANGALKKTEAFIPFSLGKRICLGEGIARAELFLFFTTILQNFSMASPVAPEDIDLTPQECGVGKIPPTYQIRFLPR
T7 sequence (P10632 whole entry): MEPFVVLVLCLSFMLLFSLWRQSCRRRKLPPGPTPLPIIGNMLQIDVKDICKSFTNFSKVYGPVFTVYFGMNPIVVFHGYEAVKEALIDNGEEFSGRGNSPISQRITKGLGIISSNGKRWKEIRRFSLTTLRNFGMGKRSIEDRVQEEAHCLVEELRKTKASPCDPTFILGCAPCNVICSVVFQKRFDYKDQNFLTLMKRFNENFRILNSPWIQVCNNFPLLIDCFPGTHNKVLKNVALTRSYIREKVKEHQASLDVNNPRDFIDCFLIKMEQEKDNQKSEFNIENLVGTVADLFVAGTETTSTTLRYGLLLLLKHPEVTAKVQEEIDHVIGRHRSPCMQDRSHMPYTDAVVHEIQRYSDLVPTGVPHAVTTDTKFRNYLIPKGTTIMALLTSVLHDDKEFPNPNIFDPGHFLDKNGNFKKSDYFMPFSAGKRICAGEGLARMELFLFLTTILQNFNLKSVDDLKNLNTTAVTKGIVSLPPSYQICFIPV
T1 sequence (P33261 whole entry): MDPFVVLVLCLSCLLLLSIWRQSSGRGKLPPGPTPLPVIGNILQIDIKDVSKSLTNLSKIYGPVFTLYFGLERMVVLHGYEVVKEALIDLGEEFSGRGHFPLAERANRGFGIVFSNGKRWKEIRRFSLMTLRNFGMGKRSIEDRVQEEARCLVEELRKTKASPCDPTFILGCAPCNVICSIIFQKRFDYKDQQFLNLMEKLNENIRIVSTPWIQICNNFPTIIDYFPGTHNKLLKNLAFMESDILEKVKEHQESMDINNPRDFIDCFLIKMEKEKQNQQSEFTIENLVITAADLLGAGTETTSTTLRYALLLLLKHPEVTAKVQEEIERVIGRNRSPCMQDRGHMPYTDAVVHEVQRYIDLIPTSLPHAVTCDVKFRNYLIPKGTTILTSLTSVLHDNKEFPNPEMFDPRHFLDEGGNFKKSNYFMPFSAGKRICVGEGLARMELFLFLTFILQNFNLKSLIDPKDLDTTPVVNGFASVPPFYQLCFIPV

N#CC[C@H](C1CCCC1)n1cc(-c2ncnc3[nH]ccc23)cn1 [Ruxolitinib]
patients with >50% reduction in spleen volume (myelofibrosis [1]): 44%
CR (myelofibrosis [2]; 2013 IWG-MRT criteria): 0 (0%) n (%)
Clinical Improvement (CI) (myelofibrosis [2]; 2013 IWG-MRT criteria): 9 (18%) n (%)
PR (myelofibrosis [2]; 2013 IWG-MRT criteria): 0 (0%) n (%)
patients with symptom improvement (myelofibrosis [2]; 2013 IWG-MRT-ELN criteria): 18%
Anemia Response (myelofibrosis [2]): 19 (2; 11%) n (responses; %)
Anemia Response in Transfusion-Dependent Patients (myelofibrosis [2]): 12 (2; 17%) n (responses; %)
Spleen Response (myelofibrosis [2]): 46 (7; 15%) Evaluables (responses; %)
anemia response rate (myelofibrosis [2]): 11%
spleen volume reduction response rate (myelofibrosis [2]): 15%
patients with ≥35% reduction in spleen volume (myelofibrosis [3]): 28%
patients with ≥35% reduction in spleen volume (myelofibrosis [4]): 41.9%
Thrombus, patients (polycythemia vera; Ruxolitinib group, ref RESPONSE study): 1
Herpes zoster infection (polycythemia vera; in vivo): 6%
herpes zoster incidence (polycythemia vera; in vivo): 4.7%

N#CCNC(=O)c1ccc(-c2ccnc(Nc3ccc(N4CCOCC4)cc3)n2)cc1 [ZG0128, Jaktinib Dihydrochloride Monohydrate]
IC50 (CYP2C19): > 100 µM
IC50 (CYP2D6): > 100 µM
IC50 (CYP3A4; microsomes): > 100 µM
IC50 (CYP3A4; midazolam 1'-hydroxylation, read-out: IC50): > 100 µM
IC50 ([5]; J53Z1 and HCD-57 with JAK2V617F, MPLW515L, KITD816V, FLT3-ITD, FLT3D835H, FLT3D835Y, read-out: IC50, growth inhibition, range over cell lines): 310 to 710 nM
IC50 ([5]; transfected JAK2V617F cell lines, read-out: IC50): 610 nM
IC50 (CYP1A2): > 100 µM
IC50 (CYP2B6): > 100 µM
IC50 (CYP2C9): > 100 µM
IC50 (CYP2C8): > 100 µM
IC50 [6]: 180 nM
